Measured values: ChEMBL document CHEMBL1156040, “Identification and optimisation of novel and selective small molecular weight kinase inhibitors of mTOR” (Bioorg Med Chem Lett, 2009)

Key:
[1] = system: MDR1 (human); test: Apparent permeability from apical to basolateral side in MDCK2 cells expressing human MDR1 at 10 uM; type: ADME, cell-based, Canis lupus familiaris, MDCK-II; settings: dog, MDCK-MDR1
[2] = target: T1, Serine/threonine-protein kinase mTOR (Homo sapiens, UniProt P42345); test: Inhibition of mTOR kinase in human HeLa cells at 10 uM by ELISA; type: cell-based; design: scale not given: the % may be the effect or the level left
[3] = target: T1, Serine/threonine-protein kinase mTOR; test: Inhibition of mTOR kinase in human HeLa cells by ELISA; type: cell-based
[4] = Growth inhibition of human U87MG cells; type: functional, U-87MG ATCC; settings: U-87 MG
[5] = target: Phosphatidylinositol 4,5-bisphosphate 3-kinase catalytic subunit alpha isoform (Homo sapiens, UniProt P42336); test: Inhibition of PI3Kalpha kinase
Sequence of Phosphatidylinositol 4,5-bisphosphate 3-kinase catalytic subunit alpha isoform (P42336 whole entry, canonical isoform): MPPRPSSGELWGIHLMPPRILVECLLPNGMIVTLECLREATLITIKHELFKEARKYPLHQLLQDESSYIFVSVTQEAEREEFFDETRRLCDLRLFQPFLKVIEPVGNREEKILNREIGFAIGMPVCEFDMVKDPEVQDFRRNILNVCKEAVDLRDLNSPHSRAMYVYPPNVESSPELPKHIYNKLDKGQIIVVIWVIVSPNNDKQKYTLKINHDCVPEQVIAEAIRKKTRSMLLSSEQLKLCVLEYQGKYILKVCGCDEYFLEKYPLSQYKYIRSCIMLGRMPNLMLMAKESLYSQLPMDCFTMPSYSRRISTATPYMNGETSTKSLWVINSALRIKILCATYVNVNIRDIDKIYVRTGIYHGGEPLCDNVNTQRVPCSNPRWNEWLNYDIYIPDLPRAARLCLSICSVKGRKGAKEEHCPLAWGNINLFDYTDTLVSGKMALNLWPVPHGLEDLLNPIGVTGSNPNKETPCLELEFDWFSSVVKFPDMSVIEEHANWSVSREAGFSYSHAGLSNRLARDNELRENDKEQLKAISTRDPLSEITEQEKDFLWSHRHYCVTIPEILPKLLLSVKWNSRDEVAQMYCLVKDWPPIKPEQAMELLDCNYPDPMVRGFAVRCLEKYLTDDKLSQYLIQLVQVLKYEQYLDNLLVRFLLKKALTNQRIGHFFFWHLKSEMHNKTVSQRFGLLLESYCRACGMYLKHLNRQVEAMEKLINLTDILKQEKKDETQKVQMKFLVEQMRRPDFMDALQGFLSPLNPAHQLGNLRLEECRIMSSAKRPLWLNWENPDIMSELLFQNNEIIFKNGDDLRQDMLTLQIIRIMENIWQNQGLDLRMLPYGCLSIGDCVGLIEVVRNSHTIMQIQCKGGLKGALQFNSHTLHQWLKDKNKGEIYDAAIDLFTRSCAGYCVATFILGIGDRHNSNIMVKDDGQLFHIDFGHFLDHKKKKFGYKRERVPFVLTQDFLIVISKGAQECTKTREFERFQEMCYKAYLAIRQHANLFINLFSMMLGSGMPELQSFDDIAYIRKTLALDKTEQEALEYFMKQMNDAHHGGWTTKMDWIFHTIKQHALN

[6] = target: Serine-protein kinase ATM (Homo sapiens, UniProt Q13315); test: Inhibition of ATM
Sequence of Serine-protein kinase ATM (Q13315 whole entry): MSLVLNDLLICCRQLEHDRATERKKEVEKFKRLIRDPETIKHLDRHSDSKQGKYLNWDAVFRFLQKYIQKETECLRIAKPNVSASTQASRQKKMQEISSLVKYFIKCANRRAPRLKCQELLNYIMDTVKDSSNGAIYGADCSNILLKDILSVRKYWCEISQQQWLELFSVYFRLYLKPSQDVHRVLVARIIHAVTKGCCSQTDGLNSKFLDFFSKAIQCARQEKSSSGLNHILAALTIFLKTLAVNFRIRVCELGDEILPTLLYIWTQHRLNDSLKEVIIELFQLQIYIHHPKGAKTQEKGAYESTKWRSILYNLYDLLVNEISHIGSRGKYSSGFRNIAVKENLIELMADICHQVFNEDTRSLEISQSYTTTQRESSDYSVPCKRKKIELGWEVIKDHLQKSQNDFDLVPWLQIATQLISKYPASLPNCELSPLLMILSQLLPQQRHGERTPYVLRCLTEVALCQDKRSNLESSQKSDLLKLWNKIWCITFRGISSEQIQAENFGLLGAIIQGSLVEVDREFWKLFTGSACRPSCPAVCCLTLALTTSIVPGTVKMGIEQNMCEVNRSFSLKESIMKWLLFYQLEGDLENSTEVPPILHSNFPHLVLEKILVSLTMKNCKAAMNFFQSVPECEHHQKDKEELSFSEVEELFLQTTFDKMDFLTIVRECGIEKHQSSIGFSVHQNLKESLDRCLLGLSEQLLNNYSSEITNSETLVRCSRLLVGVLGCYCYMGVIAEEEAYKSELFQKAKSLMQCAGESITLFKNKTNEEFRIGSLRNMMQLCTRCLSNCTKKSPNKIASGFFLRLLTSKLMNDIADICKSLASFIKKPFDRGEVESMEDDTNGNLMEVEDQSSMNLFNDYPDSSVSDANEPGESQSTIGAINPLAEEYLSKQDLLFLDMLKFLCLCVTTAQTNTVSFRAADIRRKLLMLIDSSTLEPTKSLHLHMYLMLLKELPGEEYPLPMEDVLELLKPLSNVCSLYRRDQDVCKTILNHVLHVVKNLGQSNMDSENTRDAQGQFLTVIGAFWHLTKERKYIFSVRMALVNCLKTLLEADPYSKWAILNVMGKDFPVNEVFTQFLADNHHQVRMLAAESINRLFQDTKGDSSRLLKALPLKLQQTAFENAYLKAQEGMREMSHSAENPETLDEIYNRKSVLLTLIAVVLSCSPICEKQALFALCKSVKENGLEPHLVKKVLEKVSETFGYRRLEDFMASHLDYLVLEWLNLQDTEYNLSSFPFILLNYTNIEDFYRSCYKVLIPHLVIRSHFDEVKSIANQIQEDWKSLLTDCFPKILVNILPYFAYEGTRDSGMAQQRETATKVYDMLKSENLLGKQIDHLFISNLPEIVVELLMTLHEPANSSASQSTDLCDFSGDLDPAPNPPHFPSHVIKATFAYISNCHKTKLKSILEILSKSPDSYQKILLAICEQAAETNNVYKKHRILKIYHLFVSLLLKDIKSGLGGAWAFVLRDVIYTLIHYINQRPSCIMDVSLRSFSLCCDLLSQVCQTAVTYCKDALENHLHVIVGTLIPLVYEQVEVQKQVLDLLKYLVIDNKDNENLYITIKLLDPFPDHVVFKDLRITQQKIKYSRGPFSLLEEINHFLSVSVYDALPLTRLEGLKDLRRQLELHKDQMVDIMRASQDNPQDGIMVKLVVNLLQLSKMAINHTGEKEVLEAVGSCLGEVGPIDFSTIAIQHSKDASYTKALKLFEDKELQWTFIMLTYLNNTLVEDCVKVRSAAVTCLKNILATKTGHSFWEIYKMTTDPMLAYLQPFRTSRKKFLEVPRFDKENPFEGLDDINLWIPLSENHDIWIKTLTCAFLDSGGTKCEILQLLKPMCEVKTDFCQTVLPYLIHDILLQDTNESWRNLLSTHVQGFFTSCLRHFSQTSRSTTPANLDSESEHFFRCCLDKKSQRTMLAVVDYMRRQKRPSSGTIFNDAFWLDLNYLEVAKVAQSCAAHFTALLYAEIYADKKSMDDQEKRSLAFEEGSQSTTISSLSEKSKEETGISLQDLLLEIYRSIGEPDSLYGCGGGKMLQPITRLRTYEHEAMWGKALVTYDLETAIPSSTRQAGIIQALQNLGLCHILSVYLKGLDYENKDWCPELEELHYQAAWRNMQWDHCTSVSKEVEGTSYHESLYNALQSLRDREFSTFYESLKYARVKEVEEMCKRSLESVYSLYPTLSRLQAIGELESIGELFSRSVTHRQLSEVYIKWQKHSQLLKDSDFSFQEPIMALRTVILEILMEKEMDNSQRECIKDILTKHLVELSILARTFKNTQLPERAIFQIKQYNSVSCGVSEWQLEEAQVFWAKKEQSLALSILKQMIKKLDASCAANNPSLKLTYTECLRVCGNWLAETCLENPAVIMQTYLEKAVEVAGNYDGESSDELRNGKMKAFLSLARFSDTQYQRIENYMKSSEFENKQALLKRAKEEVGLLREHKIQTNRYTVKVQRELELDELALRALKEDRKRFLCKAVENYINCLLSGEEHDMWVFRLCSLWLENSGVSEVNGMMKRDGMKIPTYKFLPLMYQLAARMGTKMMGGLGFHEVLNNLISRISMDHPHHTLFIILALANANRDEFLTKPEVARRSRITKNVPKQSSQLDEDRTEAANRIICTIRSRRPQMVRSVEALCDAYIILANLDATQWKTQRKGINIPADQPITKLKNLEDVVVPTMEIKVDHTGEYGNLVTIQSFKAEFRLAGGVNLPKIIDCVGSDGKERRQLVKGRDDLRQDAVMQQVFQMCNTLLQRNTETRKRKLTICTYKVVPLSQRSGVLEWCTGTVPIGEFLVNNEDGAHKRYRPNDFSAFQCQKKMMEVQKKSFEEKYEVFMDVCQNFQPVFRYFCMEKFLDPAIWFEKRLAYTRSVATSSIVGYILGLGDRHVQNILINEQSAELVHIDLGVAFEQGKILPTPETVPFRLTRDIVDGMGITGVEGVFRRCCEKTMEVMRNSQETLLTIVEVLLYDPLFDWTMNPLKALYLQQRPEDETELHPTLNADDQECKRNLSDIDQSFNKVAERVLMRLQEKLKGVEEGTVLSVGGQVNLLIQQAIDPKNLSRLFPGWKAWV

Structure (SMILES) | IC50 [3] [µM] | GI50 [4] [µM] | IC50 [5] [µM] | other results
OCc1cccc(-c2ccc(-c3cc(N4CCOCC4)nc(N4CCOCC4)n3)o2)c1 | – | – | – | Papp A→B at 10 µM [1]: 330 nm/s
COc1cc(-c2cnn(-c3ccnc(N4CCOCC4)n3)c2)cc(OC)c1O | – | – | – | Activity [2]: < 50%
c1cc2cc(-c3ccc(-c4cc(N5CCOCC5)nc(N5CCOCC5)n4)o3)ccc2[nH]1 | > 10 | – | – | –
COc1cc(-c2csc(-c3ccnc(N4CCOCC4)n3)n2)cc(OC)c1O | 0.18 | 21 | > 10 | –
COc1cc(/C=N/Nc2nc(N3CCOCC3)nc(N3CCOCC3)n2)cc(OC)c1O | 0.27 | – | > 10 | IC50 [6]: > 10 µM
COc1cc(-c2cn(-c3nc(N4CCOCC4)nc(N4CCOCC4)n3)cn2)cc(OC)c1O | – | 24 | > 10 | –
COc1cc(-c2ccc(-c3cc(N4CCOCC4)nc(N4CCOCC4)n3)o2)cc(OC)c1O | 0.023 | 16 | > 10 | –
Oc1cccc(-c2ccc(-c3cc(N4CCOCC4)nc(N4CCOCC4)n3)o2)c1 | – | – | – | Papp A→B at 10 µM [1]: 22 nm/s
COc1cc(-c2ccc(-c3ccnc(N4CCOCC4)n3)s2)cc(OC)c1O | – | – | – | Activity [2]: < 50%
COc1cc(-c2ccc(-c3ccnc(N4CCOCC4)n3)o2)cc(OC)c1O | 0.052 | 3.7 | > 10 | –
